Results taken from ChEMBL document CHEMBL3826911, “Rational design and synthesis of novel anti-prostate cancer agents bearing a 3,5-bis-trifluoromethylphenyl moiety” (Bioorg Med Chem Lett, 2016).

Legend:
CWR22R = test: Antiproliferative activity against human 22Rv1 cells assessed as reduction in cell viability after 96 hrs by propidium iodide staining based fluorescence assay; format: functional
LNCaP = test: Antiproliferative activity against human LNCAP cells assessed as reduction in cell viability after 96 hrs by propidium iodide staining based fluorescence assay; format: functional
HepG2 = test: Cytotoxicity against human HepG2 cells assessed as cell viability after 72 hrs by MTT assay; format: functional, cell-based; conditions: for AC50 / minimal effective concentration: HepG2, 72 h; for minimal effective concentration: read-out: MEC
[1] = Antiproliferative activity against human VCaP cells assessed as reduction in cell viability after 96 hrs by propidium iodide staining based fluorescence assay; format: functional
[2] = Antiproliferative activity against human DU145 cells assessed as reduction in cell viability after 96 hrs by propidium iodide staining based fluorescence assay; format: functional, DU-145
[3] = Homo sapiens, 22Rv1, 96 h, read-out: IC50
[4] = Homo sapiens, LNCaP, 96 h, read-out: IC50
[5] = Homo sapiens, VCaP, 96 h, read-out: IC50
[6] = Homo sapiens, DU-145, 96 h, read-out: IC50

Structure (SMILES)	IC50 (CWR22R; cwr22r)	IC50 (LNCaP; lncap)	Activity (HepG2)	IC50 ([1]; vcap)	IC50 ([2]; du-145)	IC50 (CWR22R; [3]) [µM]	IC50 (LNCaP; [4]) [µM]	IC50 [1, 5] [µM]	IC50 [2, 6] [µM]	AC50 (HepG2) [µM]	minimal effective concentration (HepG2) [µM]
CC1(C)C(=O)N(c2ccc(C#N)cc2C(F)(F)F)C(=S)N1c1cc(C(F)(F)F)cc(C(F)(F)F)c1	ND(Insoluble)	ND(Insoluble)	Dose-dependent effect	ND(Insoluble)	ND(Insoluble)	–	–	–	–	–	–
CC1(C)C(=O)N(c2ccc(C#N)c(C(F)(F)F)c2)C(=S)N1c1cc(C(F)(F)F)cc(C(F)(F)F)c1	ND(Insoluble)	ND(Insoluble)	Dose-dependent effect	ND(Insoluble)	ND(Insoluble)	–	–	–	–	–	–
CC(O)(CSc1cc(C(F)(F)F)cc(C(F)(F)F)c1)C(=O)Nc1ccc([N+](=O)[O-])cc1C(F)(F)F (centres undefined)	–	–	Dose-dependent effect	–	–	2.29	3.11	3.52	3.38	–	–
CC(O)(CSc1cc(C(F)(F)F)cc(C(F)(F)F)c1)C(=O)Nc1ccc(C#N)cc1C(F)(F)F (centres undefined)	–	–	Dose-dependent effect	–	–	4.65	7.76	6.65	9.09	–	–
CC(O)(CSc1cccc(OC(F)(F)F)c1)C(=O)Nc1cc(C(F)(F)F)cc(C(F)(F)F)c1 (centres undefined)	–	–	Dose-dependent effect	–	–	6.42	7.76	9.29	9.61	–	–
CC(O)(CSc1cc(C(F)(F)F)cc(C(F)(F)F)c1)C(=O)Nc1ccc(C#N)c(C(F)(F)F)c1 (centres undefined)	–	–	Dose-dependent effect	–	–	1.9	2.34	2.73	2.85	–	–
N#CC(C#N)=NNc1cccc(Cl)c1 [CARBONYL CYANIDE M-CHLOROPHENYLHYDRAZONE]	–	–	–	–	–	–	–	–	–	8.28	3.25
CC(O)(COc1cc(C(C)(C)C)cc(C(C)(C)C)c1)C(=O)Nc1ccc(C#N)c(C(F)(F)F)c1 (centres undefined)	–	–	Dose-dependent effect	–	–	2.27	2.67	2.98	3.15	–	–
CC(O)(CS(=O)(=O)c1ccc(F)cc1)C(=O)Nc1ccc(C#N)c(C(F)(F)F)c1 (centres undefined)	–	–	Dose-dependent effect	–	–	–	–	–	–	–	–
CC(O)(CSc1cccc(C(F)(F)F)c1)C(=O)Nc1cc(C(F)(F)F)cc(C(F)(F)F)c1 (centres undefined)	–	–	Dose-dependent effect	–	–	9.67	8.75	9.86	10	–	–
CC(O)(CS(=O)(=O)c1cccc(OC(F)(F)F)c1)C(=O)Nc1cc(C(F)(F)F)cc(C(F)(F)F)c1 (centres undefined)	–	–	Dose-dependent effect	–	–	12.8	9.34	9.99	14.1	–	–
CN(C)CCCN1c2ccccc2Sc2ccc(Cl)cc21 [CHLORPROMAZINE]	–	–	–	–	–	–	–	–	–	7.62	2.07
CC(O)(CS(=O)(=O)c1ccccc1C(F)(F)F)C(=O)Nc1cc(C(F)(F)F)cc(C(F)(F)F)c1 (centres undefined)	–	–	Dose-dependent effect	–	–	9.45	8.51	8.55	11	–	–
CC(O)(CS(=O)(=O)c1cc(C(F)(F)F)cc(C(F)(F)F)c1)C(=O)Nc1ccc(C#N)cc1C(F)(F)F (centres undefined)	ND(Insoluble)	ND(Insoluble)	Dose-dependent effect	ND(Insoluble)	ND(Insoluble)	–	–	–	–	–	–
CC(O)(CSc1ccccc1OC(F)(F)F)C(=O)Nc1cc(C(F)(F)F)cc(C(F)(F)F)c1 (centres undefined)	–	–	Dose-dependent effect	–	–	2.94	2.91	2.9	6.41	–	–
CNC(=O)c1ccc(N2C(=S)N(c3ccc(C#N)c(C(F)(F)F)c3)C(=O)C2(C)C)cc1F [ENZALUTAMIDE]	–	–	Dose-dependent effect	–	–	–	11.5	53	32.3	–	–
CNC(=O)c1ccc(N2C(=S)N(c3cc(C(F)(F)F)cc(C(F)(F)F)c3)C(=O)C2(C)C)cc1	–	–	Dose-dependent effect	–	–	26.4	11.3	19.8	47.9	–	–
